Test results: PubChem BioAssay (NCI)
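Compound exposure: 48 hours, 5 concentrations, 96-well plates. GI50 = concentration required for 50% inhibition of growth. TGI: total growth inhibition.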

Experiments:
Assay in all cases: growth of human tumour cells (NCI), 48 h
HCT-116 colon = system: HCT-116 colon
ACHN renal = system: ACHN renal
HOP-92 NSCLC = system: HOP-92 NSCLC
MDA-MB-435 = system: MDA-MB-435
NCI-H522 lung = system: NCI-H522 lung
MDA-MB-231 breast = system: MDA-MB-231 breast
IGROV1 ovarian = system: IGROV1 ovarian
SK-MEL-28 melanoma = system: SK-MEL-28 melanoma
786-0 renal = system: 786-0 renal
UO-31 renal = system: UO-31 renal
HCC-2998 colon = system: HCC-2998 colon
RPMI-8226 leukemia = system: RPMI-8226 leukemia
PC-3 prostate = system: PC-3 prostate
SR leukemia = system: SR leukemia
K-562 leukemia = system: K-562 leukemia
UACC-62 melanoma = system: UACC-62 melanoma
MCF7 breast = system: MCF7 breast
HOP-62 NSCLC = system: HOP-62 NSCLC
SN12C renal = system: SN12C renal
HT29 colon = system: HT29 colon
SF-539 CNS = system: SF-539 CNS
OVCAR-8 ovarian = system: OVCAR-8 ovarian
T-47D breast = system: T-47D breast
OVCAR-3 ovarian = system: OVCAR-3 ovarian
MALME-3M melanoma = system: MALME-3M melanoma
SK-OV-3 ovarian = system: SK-OV-3 ovarian
HS 578T breast = system: HS 578T breast
SK-MEL-2 melanoma = system: SK-MEL-2 melanoma
MDA-MB-468 breast = system: MDA-MB-468 breast
BT-549 breast = system: BT-549 breast
LOX IMVI melanoma = system: LOX IMVI melanoma
SW-620 colon = system: SW-620 colon
A549 NSCLC = system: A549 NSCLC
SK-MEL-5 melanoma = system: SK-MEL-5 melanoma
UACC-257 melanoma = system: UACC-257 melanoma
HL-60(TB) leukemia = system: HL-60(TB) leukemia
CCRF-CEM leukemia = system: CCRF-CEM leukemia
NCI-H23 lung = system: NCI-H23 lung
EKVX NSCLC = system: EKVX NSCLC
CAKI-1 renal = system: CAKI-1 renal
SNB-19 CNS = system: SNB-19 CNS
U251 CNS = system: U251 CNS
SF-268 CNS = system: SF-268 CNS
M14 melanoma = system: M14 melanoma
COLO 205 colon = system: COLO 205 colon
OVCAR-5 ovarian = system: OVCAR-5 ovarian
HCT-15 colon = system: HCT-15 colon
SF-295 CNS = system: SF-295 CNS
SNB-75 CNS = system: SNB-75 CNS
A498 renal = system: A498 renal
NCI-H460 lung = system: NCI-H460 lung
TK-10 renal = system: TK-10 renal
NCI-H226 lung = system: NCI-H226 lung
MOLT-4 leukemia = system: MOLT-4 leukemia
RXF 393 renal = system: RXF 393 renal

C=C1CC[C@@H]2[C@]3(C)COC(c4cn(-c5ccccc5)nc4-c4ccccc4)O[C@@H]3CC[C@@]2(C)[C@@H]1C/C=C1/C(=O)OC[C@H]1O (stereo not given in full)
GI50 (HCT-116 colon): 1.61 µM | TGI (HCT-116 colon): 3.55 µM | GI50 (ACHN renal): 1.64 µM | TGI (ACHN renal): 3.05 µM | GI50 (HOP-92 NSCLC): 1.53 µM | TGI (HOP-92 NSCLC): 2.99 µM | GI50 (MDA-MB-435): 1.86 µM | TGI (MDA-MB-435): 4.19 µM | GI50 (NCI-H522 lung): 1.9 µM | TGI (NCI-H522 lung): 3.86 µM | GI50 (MDA-MB-231 breast): 1.72 µM | TGI (MDA-MB-231 breast): 3.25 µM | GI50 (IGROV1 ovarian): 1.77 µM | TGI (IGROV1 ovarian): 3.44 µM | GI50 (SK-MEL-28 melanoma): 1.77 µM | TGI (SK-MEL-28 melanoma): 3.38 µM | GI50 (786-0 renal): 2.03 µM | TGI (786-0 renal): 4.47 µM | GI50 (UO-31 renal): 1.35 µM | TGI (UO-31 renal): 2.69 µM | GI50 (HCC-2998 colon): 1.68 µM | TGI (HCC-2998 colon): 3.11 µM | GI50 (RPMI-8226 leukemia): 2.02 µM | TGI (RPMI-8226 leukemia): 8.62 µM | GI50 (PC-3 prostate): 1.95 µM | TGI (PC-3 prostate): 4.7 µM | GI50 (SR leukemia): 3.79 µM | TGI (SR leukemia): > 100 µM | GI50 (K-562 leukemia): 2.97 µM | TGI (K-562 leukemia): > 100 µM | GI50 (UACC-62 melanoma): 1.65 µM | TGI (UACC-62 melanoma): 3.2 µM | GI50 (MCF7 breast): 2 µM | TGI (MCF7 breast): 9.09 µM | GI50 (HOP-62 NSCLC): 1.87 µM | TGI (HOP-62 NSCLC): 3.84 µM | GI50 (SN12C renal): 1.87 µM | TGI (SN12C renal): 3.96 µM | GI50 (HT29 colon): 2.37 µM | TGI (HT29 colon): 6.77 µM | GI50 (SF-539 CNS): 1.84 µM | TGI (SF-539 CNS): 3.26 µM | GI50 (OVCAR-8 ovarian): 1.81 µM | TGI (OVCAR-8 ovarian): 5.31 µM | GI50 (T-47D breast): 1.42 µM | TGI (T-47D breast): 3.47 µM | GI50 (OVCAR-3 ovarian): 1.82 µM | TGI (OVCAR-3 ovarian): 3.35 µM | GI50 (MALME-3M melanoma): 1.73 µM | TGI (MALME-3M melanoma): 3.18 µM | GI50 (SK-OV-3 ovarian): 4.75 µM | TGI (SK-OV-3 ovarian): 18.7 µM | GI50 (HS 578T breast): 2.31 µM | TGI (HS 578T breast): 6.54 µM | GI50 (SK-MEL-2 melanoma): 1.74 µM | TGI (SK-MEL-2 melanoma): 3.54 µM | GI50 (MDA-MB-468 breast): 1.69 µM | TGI (MDA-MB-468 breast): 3.34 µM | GI50 (BT-549 breast): 1.64 µM | TGI (BT-549 breast): 3.16 µM | GI50 (LOX IMVI melanoma): 1.54 µM | TGI (LOX IMVI melanoma): 3 µM | GI50 (SW-620 colon): 1.73 µM | TGI (SW-620 colon): 3.68 µM | GI50 (A549 NSCLC): 2.49 µM | TGI (A549 NSCLC): 7.11 µM | GI50 (SK-MEL-5 melanoma): 1.4 µM | TGI (SK-MEL-5 melanoma): 2.7 µM | GI50 (UACC-257 melanoma): 1.9 µM | TGI (UACC-257 melanoma): 3.8 µM | GI50 (HL-60(TB) leukemia): 2.32 µM | TGI (HL-60(TB) leukemia): 7.46 µM | GI50 (CCRF-CEM leukemia): 0.59 µM | TGI (CCRF-CEM leukemia): 3.37 µM | GI50 (NCI-H23 lung): 1.69 µM | TGI (NCI-H23 lung): 3.08 µM | GI50 (EKVX NSCLC): 2.07 µM | TGI (EKVX NSCLC): 4.65 µM | GI50 (CAKI-1 renal): 1.86 µM | TGI (CAKI-1 renal): 4.81 µM | GI50 (SNB-19 CNS): 1.85 µM | TGI (SNB-19 CNS): 3.78 µM | GI50 (U251 CNS): 1.84 µM | TGI (U251 CNS): 3.71 µM | GI50 (SF-268 CNS): 3.2 µM | TGI (SF-268 CNS): 20.5 µM | GI50 (M14 melanoma): 1.81 µM | TGI (M14 melanoma): 3.62 µM | GI50 (COLO 205 colon): 2.01 µM | TGI (COLO 205 colon): 3.57 µM | GI50 (OVCAR-5 ovarian): 1.86 µM | TGI (OVCAR-5 ovarian): 4.02 µM | GI50 (HCT-15 colon): 1.72 µM | TGI (HCT-15 colon): 3.45 µM | GI50 (SF-295 CNS): 1.64 µM | TGI (SF-295 CNS): 3.05 µM | GI50 (SNB-75 CNS): 1.36 µM | TGI (SNB-75 CNS): 3.9 µM | GI50 (A498 renal): 2.34 µM | TGI (A498 renal): 6.47 µM | GI50 (NCI-H460 lung): 1.66 µM | TGI (NCI-H460 lung): 3.35 µM | GI50 (TK-10 renal): 1.78 µM | TGI (TK-10 renal): 3.39 µM | GI50 (NCI-H226 lung): 1.95 µM | TGI (NCI-H226 lung): 4.31 µM | GI50 (MOLT-4 leukemia): 1.97 µM | TGI (MOLT-4 leukemia): > 100 µM | GI50 (RXF 393 renal): 1.4 µM | TGI (RXF 393 renal): 2.84 µM
